{"source": "patent US20170105953A1", "about": "“METHOD FOR SUPPRESSING DIABETES AND/OR HEPATIC LIPIDS USING TORMENTIC ACID” (priority 2015, published 2017)", "assay_type_in_all_cases": "in vivo", "key": {"[1]": {"experiment": "blood parameters in high-fat diet-fed mice", "conditions": "HF diet-fed C57BL/6J mice, Rosi 0.01 g/kg/day oral gavage 4 weeks", "method": "For part 2, C57BL/6J mice (4 weeks old) were obtained from the National Laboratory Animal Breeding and Research Center. The mice were divided randomly into two groups after 7 days acclimation. […] The compositions of the experimental diets are given in previous studies. After 8 weeks, the high-fat treated mice were randomly subdivided into four groups (n=9) including PTA1 (0.06 g/kg/day), PTA2 (0.12 g/kg/day) or rosiglitazone (Rosi; 1% methylcellulose, 10 mg/kg body weight) (GlaxoSmithKline) or vehicle and treated by oral gavage one time per day from the 9th to 12th weeks, while the mice were still on the high-fat diet, whereas the CON and high-fat control (HF) mice were treated with vehicle only. At the end, food was withheld from the animals (from 10 p.m. to 10 a.m.). The next day, the mice were sacrificed for blood and tissue collection and analysis. Livers, skeletal muscles, and white adipose tissues (WATs) (including epididymal, mesenteric, and retroperitoneal WAT) were weighed and excised, followed by immediate freezing, and kept at −80° C. for target gene analysis. Heparin (30 units/mL) (Sigma) was added to blood samples. Plasma samples were collected within 30 min by centrifugation at 1600 g for 15 min at 4° C. Plasma was obtained for insulin and leptin assay.\nBlood samples (0.8 mL) were collected from the retro-orbital sinus of fasted mice, and the glucose level was analyzed by the glucose oxidase method (model 1500; Sidekick Glucose Analyzer; YSI Inc., Yellow Springs, Ohio, USA). Plasma triglycerides (TG), total cholesterol (TC), and free fatty acids (FFA) were measured using commercial assay kits according to the manufacturer's directions (Triglycerides-E test, Cholesterol-E test, and FFA-C test, Wako Pure Chemical, Osaka, Japan). The levels of insulin and leptin in blood were analyzed by ELISA using a commercial assay kit according to the manufacturer's directions (mouse insulin ELISA kit, Sibayagi, Gunma, Japan; and mouse leptin ELISA kit, Morinaga, Yokohama, Japan)."}, "[2]": {"experiment": "hepatic lipids in high-fat diet-fed mice", "conditions": "HF diet-fed C57BL/6J mice, Rosi 0.01 g/kg/day oral gavage 4 weeks; mean ± SE, n=9", "excerpt": "(§1) For part 2, C57BL/6J mice (4 weeks old) were obtained from the National Laboratory Animal Breeding and Research Center. The mice were divided randomly into two groups after 7 days acclimation. The control (CON) group (n=9) was fed a low-fat diet (diet 12450B, Research Diets, Inc., New Brunswick, N.J., USA), whereas the experimental group was fed a 45% high-fat diet (diet 12451, Research Diets, Inc.) for 12 weeks. The compositions of the experimental diets are given in previous studies. After 8 weeks, the high-fat treated mice were randomly subdivided into four groups (n=9) including PTA1 (0.06 g/kg/day), PTA2 (0.12 g/kg/day) or rosiglitazone (Rosi; 1% methylcellulose, 10 mg/kg body weight) (GlaxoSmithKline) or vehicle and treated by oral gavage one time per day from the 9th to 12th weeks, while the mice were still on the high-fat diet, whereas the CON and high-fat control (HF) mice were treated with vehicle only. At the end, food was withheld from the animals (from 10 p.m. to 10 a.m.). The next day, the mice were sacrificed for blood and tissue collection and analysis. Livers, skeletal muscles, and white adipose tissues (WATs) (including epididymal, mesenteric, and retroperitoneal WAT) were weighed and excised, followed by immediate freezing, and kept at −80° C. for target gene analysis. Heparin (30 units/mL) (Sigma) was added to blood samples. Plasma samples were collected within 30 min by centrifugation at 1600 g for 15 min at 4° C. Plasma was obtained for insulin and leptin assay.\nHepatic lipids were extracted using a previously described protocol. For the hepatic lipid extraction, 0.375 g liver samples were homogenized with 1 mL of distilled water for 5 min. Finally, the dried pellet was resuspended in 0.5 mL of ethanol and analyzed using a triglycerides kit as used for serum lipids."}, "[3]": {"tested_on": "epididymal WAT and liver tissue", "experiment": "histopathology of epididymal WAT and liver tissue", "conditions": "HF diet-fed C57BL/6J mice, Rosi 0.01 g/kg/day oral gavage 4 weeks", "excerpt": "as §1\nSmall pieces of epididymal WAT and liver tissue were fixed with formalin (200 g/kg) neutral buffered solution and embedded in paraffin. Sections (8 μm) were cut and stained with hematoxylin and eosin. For microscopic examination, a microscope (Leica, DM2500) was used, and the images were taken using a Leica Digital camera (DFC-425-C)."}}, "data": [{"smiles": "CN(CCOc1ccc(CC2SC(=O)NC2=O)cc1)c1ccccn1", "note": "(stereo not drawn) [Rosi, rosiglitazone, reference compound]", "values": [{"measurement": "blood glucose", "setting": "[1]; week 12", "value": 89.7, "unit": "mg/dL"}, {"measurement": "Blood profiles: FFA (plasma free fatty acid)", "setting": "[1]; mean ± SE, n=9", "value": "1.85 ± 0.28", "unit": "mequiv/L"}, {"measurement": "Blood profiles: Insulin", "setting": "[1]; mean ± SE, n=9", "value": "56.4 ± 13.8", "unit": "μU/mL"}, {"measurement": "Blood profiles: Leptin", "setting": "[1]; mean ± SE, n=9", "value": "2.15 ± 0.099", "unit": "ng/mL"}, {"measurement": "Blood profiles: TC (total cholesterol)", "setting": "[1]; mean ± SE, n=9", "value": "140.7 ± 14.1", "unit": "mg/dL"}, {"measurement": "Liver lipids: Total lipid", "setting": "[2]", "value": "74.7 ± 5.7", "unit": "mg/g"}, {"measurement": "Liver lipids: Triacylglycerol", "setting": "[2]", "value": "43.8 ± 4.7", "unit": "µmol/g"}, {"measurement": "average area of adipocytes (epididymal WAT)", "setting": "[3]", "value": "4574.4±162.7", "unit": "μm^2"}, {"measurement": "hepatocellular ballooning mean score", "setting": "[3]; grade 0 none, 1 a few cells, 2 many cells", "value": "0.9±0.2"}]}]}
